Laboratory results from ChEMBL document CHEMBL2203152, “Systematic in vivo screening of a series of 1-propyl-4-arylpiperidines against dopaminergic and serotonergic properties in rat brain: a scaffold-jumping approach” (J Med Chem, 2012).
Calls of active or inactive are those of the source. No cut-off for these calls is given here.

Legend:
Rattus norvegicus [1] = assay: Increase in DOPAC level in sc dosed Sprague-Dawley rat striatum by HPLC analysis; format: functional
Rattus norvegicus [2] = assay: Increase in DOPAC level in Sprague-Dawley rat striatum at 5.8 umol/kg, sc by HPLC analysis relative to saline-treated control; format: functional
Rattus norvegicus [3] = assay: Reduction in spontaneous locomotor activity in Sprague-Dawley rat at 5.8 umol/kg, sc measured after 15 to 60 mins relative to saline-treated control; format: functional; design: scale not given: the % may be the effect or the level left
Rattus norvegicus [4] = assay: Decrease in 5-HIAA level in Sprague-Dawley rat striatum at 5.8 umol/kg, sc by HPLC analysis relative to saline-treated control; format: functional; design: scale not given: the % may be the effect or the level left
Rattus norvegicus [5] = assay: Increase in DOPAC level in Sprague-Dawley rat striatum at 37 umol/kg, sc by HPLC analysis relative to saline-treated control; format: functional
Rattus norvegicus [6] = assay: Decrease in 5-HIAA level in Sprague-Dawley rat striatum at 37 umol/kg, sc by HPLC analysis relative to saline-treated control; format: functional; design: scale not given: the % may be the effect or the level left
Rattus norvegicus [7] = assay: Reduction in spontaneous locomotor activity in Sprague-Dawley rat at 37 umol/kg, sc measured after 15 to 60 mins relative to saline-treated control; format: functional; design: scale not given: the % may be the effect or the level left
Rattus norvegicus [8] = assay: Decrease in 5-HIAA level in Sprague-Dawley rat striatum at 6.4 umol/kg, sc by HPLC analysis relative to saline-treated control; format: functional; design: scale not given: the % may be the effect or the level left
Rattus norvegicus [9] = assay: Increase in DOPAC level in Sprague-Dawley rat striatum at 6.4 umol/kg, sc by HPLC analysis relative to saline-treated control; format: functional
Rattus norvegicus [10] = assay: Reduction in spontaneous locomotor activity in Sprague-Dawley rat at 6.4 umol/kg, sc measured after 15 to 60 mins relative to saline-treated control; format: functional; design: scale not given: the % may be the effect or the level left
Rattus norvegicus [11] = assay: Reduction in spontaneous locomotor activity in Sprague-Dawley rat at 25 umol/kg, sc measured after 15 to 60 mins relative to saline-treated control; format: functional; design: scale not given: the % may be the effect or the level left
Rattus norvegicus [12] = assay: Decrease in 5-HIAA level in Sprague-Dawley rat striatum at 25 umol/kg, sc by HPLC analysis relative to saline-treated control; format: functional; design: scale not given: the % may be the effect or the level left
Rattus norvegicus [13] = assay: Increase in DOPAC level in Sprague-Dawley rat striatum at 25 umol/kg, sc by HPLC analysis relative to saline-treated control; format: functional
Rattus norvegicus [14] = assay: Decrease in 5-HIAA level in Sprague-Dawley rat striatum at 2.4 umol/kg, sc by HPLC analysis relative to saline-treated control; format: functional; design: scale not given: the % may be the effect or the level left
Rattus norvegicus [15] = assay: Increase in DOPAC level in Sprague-Dawley rat striatum at 2.4 umol/kg, sc by HPLC analysis relative to saline-treated control; format: functional
Rattus norvegicus [16] = assay: Reduction in spontaneous locomotor activity in Sprague-Dawley rat at 2.4 umol/kg, sc measured after 15 to 60 mins relative to saline-treated control; format: functional; design: scale not given: the % may be the effect or the level left
Rattus norvegicus [17] = assay: Decrease in 5-HIAA level in Sprague-Dawley rat striatum at 33 umol/kg, sc by HPLC analysis relative to saline-treated control; format: functional; design: scale not given: the % may be the effect or the level left
[18] = molecular target: 5-hydroxytryptamine receptor 2A (Homo sapiens, UniProt P28223); assay: Displacement of [3H]ketanserin from human 5-HT2A by CEREP assay; conditions: read-out: Ki(app)
Sequence of 5-hydroxytryptamine receptor 2A (P28223 whole entry): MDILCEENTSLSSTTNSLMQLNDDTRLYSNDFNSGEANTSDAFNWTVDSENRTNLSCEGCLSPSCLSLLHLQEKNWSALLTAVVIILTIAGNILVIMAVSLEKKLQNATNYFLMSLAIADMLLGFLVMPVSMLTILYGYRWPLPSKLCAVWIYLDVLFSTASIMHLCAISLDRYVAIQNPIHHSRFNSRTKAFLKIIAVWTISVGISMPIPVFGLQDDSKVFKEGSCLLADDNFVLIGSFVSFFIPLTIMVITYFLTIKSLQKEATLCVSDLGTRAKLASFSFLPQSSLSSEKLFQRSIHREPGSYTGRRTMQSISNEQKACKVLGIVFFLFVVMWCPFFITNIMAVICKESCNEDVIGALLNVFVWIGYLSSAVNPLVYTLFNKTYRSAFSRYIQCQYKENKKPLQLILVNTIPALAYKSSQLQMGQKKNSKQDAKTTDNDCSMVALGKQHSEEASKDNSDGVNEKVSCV

[19] = molecular target: Sodium-dependent dopamine transporter (Homo sapiens) (UniProt Q01959); assay: Displacement of [3H]BTCP from human DAT at 1 uM by CEREP assay
Sequence of Sodium-dependent dopamine transporter (Homo sapiens) (Q01959 whole entry): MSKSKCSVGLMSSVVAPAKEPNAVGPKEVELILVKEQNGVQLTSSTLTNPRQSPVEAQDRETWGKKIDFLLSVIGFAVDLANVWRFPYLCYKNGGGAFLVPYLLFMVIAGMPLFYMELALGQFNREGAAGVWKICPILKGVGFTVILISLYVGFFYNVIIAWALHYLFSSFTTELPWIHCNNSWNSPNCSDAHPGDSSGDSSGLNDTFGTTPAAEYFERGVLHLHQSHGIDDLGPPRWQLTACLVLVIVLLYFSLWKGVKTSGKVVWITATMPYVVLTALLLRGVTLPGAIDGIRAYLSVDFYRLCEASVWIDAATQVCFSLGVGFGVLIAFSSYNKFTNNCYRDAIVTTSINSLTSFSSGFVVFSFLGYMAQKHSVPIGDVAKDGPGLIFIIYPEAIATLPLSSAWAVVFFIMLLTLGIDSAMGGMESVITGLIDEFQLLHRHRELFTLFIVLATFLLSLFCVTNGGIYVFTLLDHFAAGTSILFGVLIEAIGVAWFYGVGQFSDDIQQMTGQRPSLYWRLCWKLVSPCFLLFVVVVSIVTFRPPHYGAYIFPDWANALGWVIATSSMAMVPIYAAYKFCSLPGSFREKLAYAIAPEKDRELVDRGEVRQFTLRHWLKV

Rattus norvegicus [20] = assay: Inhibition of d-amphetamine-induced hyperlocomotion in sc dosed Sprague-Dawley rat sc measured after 15 to 60 mins relative to saline-treated control; format: functional
[21] = molecular target: T1, Amine oxidase [flavin-containing] A (Rattus norvegicus, UniProt P21396); assay: Displacement of [3H]Ro 41-1049 from MAO-A in rat cerebral cortex by competition binding assay; format: tissue-based
T1 sequence (P21396 whole entry): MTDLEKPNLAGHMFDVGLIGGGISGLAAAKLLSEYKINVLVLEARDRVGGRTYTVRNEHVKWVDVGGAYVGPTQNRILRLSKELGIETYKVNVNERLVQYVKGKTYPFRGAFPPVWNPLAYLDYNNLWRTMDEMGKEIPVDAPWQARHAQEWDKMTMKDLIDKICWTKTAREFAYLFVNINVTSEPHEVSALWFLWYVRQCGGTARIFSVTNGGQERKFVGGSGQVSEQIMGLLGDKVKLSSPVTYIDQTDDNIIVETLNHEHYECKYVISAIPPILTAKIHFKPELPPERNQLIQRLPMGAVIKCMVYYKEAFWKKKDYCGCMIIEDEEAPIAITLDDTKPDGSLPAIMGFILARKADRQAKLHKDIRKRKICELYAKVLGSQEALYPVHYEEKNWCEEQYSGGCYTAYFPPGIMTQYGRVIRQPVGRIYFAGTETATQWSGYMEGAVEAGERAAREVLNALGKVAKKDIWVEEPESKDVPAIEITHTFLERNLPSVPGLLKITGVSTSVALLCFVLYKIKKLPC

Rattus norvegicus [22] = assay: Reduction in spontaneous locomotor activity in Sprague-Dawley rat at 33 umol/kg, sc measured after 15 to 60 mins relative to saline-treated control; format: functional; design: scale not given: the % may be the effect or the level left
Homo sapiens = species: Homo sapiens; assay: Selectivity ratio of Ki(app) for human low affinity Dopamine D2S receptor to Ki(app) for human high affinity Dopamine D2S receptor
[23] = molecular target: T2, 5-hydroxytryptamine receptor 1A (Homo sapiens, UniProt P08908); assay: Displacement of [3H]8- OH-DPAT from human 5-HT1A by CEREP assay; conditions: read-out: Ki(app)
T2 sequence (P08908 whole entry): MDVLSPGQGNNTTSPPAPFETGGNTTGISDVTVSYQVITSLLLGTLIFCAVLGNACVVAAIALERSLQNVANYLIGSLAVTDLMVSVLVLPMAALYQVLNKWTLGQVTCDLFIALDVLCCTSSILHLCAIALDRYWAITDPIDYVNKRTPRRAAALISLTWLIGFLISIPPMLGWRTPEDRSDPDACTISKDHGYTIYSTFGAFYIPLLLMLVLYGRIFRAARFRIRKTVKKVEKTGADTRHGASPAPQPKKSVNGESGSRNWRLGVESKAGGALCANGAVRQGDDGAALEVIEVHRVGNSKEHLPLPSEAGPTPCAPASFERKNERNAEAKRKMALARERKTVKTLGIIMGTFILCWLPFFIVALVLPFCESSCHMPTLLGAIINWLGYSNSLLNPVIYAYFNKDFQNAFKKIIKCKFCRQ

D(2) dopamine receptor [24] = molecular target: T3, D(2) dopamine receptor (Homo sapiens, UniProt P14416); assay: Displacement of [3H]methylspiperone from human low affinity Dopamine D2S receptor by competition binding assay
T3 sequence (P14416 whole entry): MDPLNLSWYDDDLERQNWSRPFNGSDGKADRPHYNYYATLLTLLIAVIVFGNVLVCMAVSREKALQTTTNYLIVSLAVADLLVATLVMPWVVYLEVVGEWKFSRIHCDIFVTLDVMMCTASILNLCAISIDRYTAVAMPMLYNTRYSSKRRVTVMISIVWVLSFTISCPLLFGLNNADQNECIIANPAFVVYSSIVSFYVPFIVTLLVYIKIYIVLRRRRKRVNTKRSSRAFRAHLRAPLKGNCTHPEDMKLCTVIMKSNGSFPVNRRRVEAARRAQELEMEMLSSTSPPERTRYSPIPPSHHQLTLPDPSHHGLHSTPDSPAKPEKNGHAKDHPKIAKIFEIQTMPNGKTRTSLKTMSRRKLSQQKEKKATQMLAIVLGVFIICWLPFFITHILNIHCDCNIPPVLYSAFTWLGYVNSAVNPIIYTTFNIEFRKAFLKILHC

Rattus norvegicus [25] = assay: Inhibition of MK-801-induced hyperlocomotion in sc dosed Sprague-Dawley rat sc measured after 15 to 60 mins relative to saline-treated control; format: functional
D(3) dopamine receptor = D(3) dopamine receptor (Homo sapiens, UniProt P35462); assay: Displacement of [3H]7-OH-DPAT from human dopamine D3 receptor by CEREP assay; conditions: read-out: Ki(app)
Sequence of D(3) dopamine receptor (P35462 whole entry): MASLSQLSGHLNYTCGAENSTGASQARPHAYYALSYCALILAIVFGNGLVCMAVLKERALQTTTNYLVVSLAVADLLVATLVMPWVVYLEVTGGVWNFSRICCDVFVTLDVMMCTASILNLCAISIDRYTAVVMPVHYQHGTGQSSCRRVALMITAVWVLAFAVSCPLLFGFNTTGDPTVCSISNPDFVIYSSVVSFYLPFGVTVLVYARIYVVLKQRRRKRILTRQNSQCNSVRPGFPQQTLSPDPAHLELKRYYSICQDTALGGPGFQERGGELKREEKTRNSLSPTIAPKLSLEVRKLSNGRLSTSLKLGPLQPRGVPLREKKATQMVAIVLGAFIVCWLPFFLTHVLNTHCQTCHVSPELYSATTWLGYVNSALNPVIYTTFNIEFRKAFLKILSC

[26] = molecular target: 5-hydroxytryptamine receptor 6 (Homo sapiens, UniProt P50406); assay: Displacement of [3H]LSD from human 5-HT6 receptor
Sequence of 5-hydroxytryptamine receptor 6 (P50406 whole entry): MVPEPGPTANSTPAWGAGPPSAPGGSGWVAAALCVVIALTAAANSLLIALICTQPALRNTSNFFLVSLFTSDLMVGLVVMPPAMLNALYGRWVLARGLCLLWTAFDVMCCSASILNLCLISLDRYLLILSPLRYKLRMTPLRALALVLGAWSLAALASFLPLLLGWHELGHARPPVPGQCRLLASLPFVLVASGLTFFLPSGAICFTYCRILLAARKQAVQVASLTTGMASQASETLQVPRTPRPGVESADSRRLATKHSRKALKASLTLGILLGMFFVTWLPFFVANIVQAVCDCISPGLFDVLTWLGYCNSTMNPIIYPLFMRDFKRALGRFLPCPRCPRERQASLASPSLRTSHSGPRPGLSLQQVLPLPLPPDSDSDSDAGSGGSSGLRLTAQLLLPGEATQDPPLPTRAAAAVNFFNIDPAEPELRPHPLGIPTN

[27] = molecular target: Sodium-dependent serotonin transporter (Homo sapiens, UniProt P31645); assay: Displacement of [3H]imipramine from human SERT expressed in CHO cells by competition binding assay; format: cell-based; conditions: read-out: Ki(app)
Sequence of Sodium-dependent serotonin transporter (P31645 whole entry): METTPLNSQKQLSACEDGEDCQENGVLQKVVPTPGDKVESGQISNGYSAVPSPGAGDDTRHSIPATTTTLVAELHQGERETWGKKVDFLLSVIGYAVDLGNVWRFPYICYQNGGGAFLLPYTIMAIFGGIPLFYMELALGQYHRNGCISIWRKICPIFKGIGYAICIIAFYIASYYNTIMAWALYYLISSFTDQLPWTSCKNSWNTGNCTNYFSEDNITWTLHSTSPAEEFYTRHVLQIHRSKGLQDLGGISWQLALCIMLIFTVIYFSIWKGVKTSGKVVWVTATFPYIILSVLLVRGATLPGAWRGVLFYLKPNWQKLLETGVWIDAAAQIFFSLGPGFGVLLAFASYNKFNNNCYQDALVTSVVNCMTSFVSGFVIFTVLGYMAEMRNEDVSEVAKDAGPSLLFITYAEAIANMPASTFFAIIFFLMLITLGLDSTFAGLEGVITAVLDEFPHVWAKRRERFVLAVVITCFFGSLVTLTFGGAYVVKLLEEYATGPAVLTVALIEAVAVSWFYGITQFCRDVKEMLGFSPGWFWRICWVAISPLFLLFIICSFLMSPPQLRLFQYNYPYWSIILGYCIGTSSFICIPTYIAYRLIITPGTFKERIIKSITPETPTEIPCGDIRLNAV

[28] = molecular target: T4, D(4) dopamine receptor (Homo sapiens) (UniProt P21917); assay: Displacement of [3H]methylspiperone from human dopamine D4 receptor at 1 uM by CEREP assay
T4 sequence (whole entry): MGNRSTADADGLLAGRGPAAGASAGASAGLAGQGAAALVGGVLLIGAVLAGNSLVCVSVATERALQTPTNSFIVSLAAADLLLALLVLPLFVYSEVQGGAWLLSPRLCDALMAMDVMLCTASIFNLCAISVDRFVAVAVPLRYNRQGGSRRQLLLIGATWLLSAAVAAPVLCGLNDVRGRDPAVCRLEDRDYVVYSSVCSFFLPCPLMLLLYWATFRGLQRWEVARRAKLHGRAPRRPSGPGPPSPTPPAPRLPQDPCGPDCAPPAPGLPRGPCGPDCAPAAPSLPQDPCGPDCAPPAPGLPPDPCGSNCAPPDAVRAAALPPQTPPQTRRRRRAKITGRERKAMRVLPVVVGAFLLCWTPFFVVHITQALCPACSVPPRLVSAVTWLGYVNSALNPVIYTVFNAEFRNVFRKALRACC

[29] = molecular target: T5, Alpha-2A adrenergic receptor (Homo sapiens, UniProt P08913); assay: Displacement of [3H]UK 14.304 from human adrenergic alpha2A receptor; conditions: read-out: Ki(app)
T5 sequence (P08913 whole entry): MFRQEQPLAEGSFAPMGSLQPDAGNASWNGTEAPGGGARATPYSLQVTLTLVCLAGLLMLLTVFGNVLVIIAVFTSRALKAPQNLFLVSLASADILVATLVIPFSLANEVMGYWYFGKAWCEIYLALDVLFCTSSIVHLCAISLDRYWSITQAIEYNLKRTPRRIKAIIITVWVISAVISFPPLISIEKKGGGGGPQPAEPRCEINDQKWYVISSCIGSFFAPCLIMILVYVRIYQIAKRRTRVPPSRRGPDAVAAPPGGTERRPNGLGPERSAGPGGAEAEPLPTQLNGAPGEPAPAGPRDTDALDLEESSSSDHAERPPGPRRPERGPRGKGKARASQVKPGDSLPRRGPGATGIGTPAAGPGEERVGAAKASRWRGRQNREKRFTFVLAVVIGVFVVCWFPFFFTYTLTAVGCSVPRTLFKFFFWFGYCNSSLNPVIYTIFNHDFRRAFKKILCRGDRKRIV

Rattus norvegicus [30] = assay: Increase in DOPAC level in Sprague-Dawley rat striatum at 33 umol/kg, sc by HPLC analysis relative to saline-treated control; format: functional
D(2) dopamine receptor [31] = molecular target: T3, D(2) dopamine receptor; assay: Displacement of [3H]7-OH-DPAT from human high affinity Dopamine D2S receptor by competition binding assay

## O=c1[nH]c2ccccc2n1C1CCN(CCCC(c2ccc(F)cc2)c2ccc(F)cc2)CC1 [PIMOZIDE]
Rattus norvegicus [1]
  ED50: 1.6 µmol/kg
Rattus norvegicus [2]
  Activity: 416%
Rattus norvegicus [3]
  Activity: 7.3%
Rattus norvegicus [4]
  Activity: 101%

## O=C(NCCN1CCOCC1)c1ccc(Cl)cc1 [MOCLOBEMIDE]
Rattus norvegicus [5]
  Activity: 18%
Rattus norvegicus [6]
  Activity: 81%
Rattus norvegicus [7]
  Activity: 164%

## O=C1Cc2cc(CCN3CCN(c4nsc5ccccc45)CC3)c(Cl)cc2N1 [ZIPRASIDONE]
Rattus norvegicus [8]
  Activity: 98%
Rattus norvegicus [1]
  ED50: 1.2 µmol/kg
Rattus norvegicus [9]
  Activity: 311%
Rattus norvegicus [10]
  Activity: 13%

## CN(C)CCCC1(c2ccc(F)cc2)OCc2cc(C#N)ccc21 (configuration not stated) [CITALOPRAM]
Rattus norvegicus [1]
  ED50: inactive
Rattus norvegicus [11]
  Activity: 50%
Rattus norvegicus [12]
  Activity: 69%
Rattus norvegicus [13]
  Activity: 101%

## Cc1nc2n(c(=O)c1CCN1CCC(c3noc4cc(F)ccc34)CC1)CCCC2 [RISPERIDONE]
Rattus norvegicus [14]
  Activity: 115%
Rattus norvegicus [1]
  ED50: 0.5 µmol/kg
Rattus norvegicus [15]
  Activity: 347%
Rattus norvegicus [16]
  Activity: 11%

## CCCN1CCC(n2c(=O)[nH]c3cc(Cl)ccc32)CC1
Rattus norvegicus [17]
  Activity: 101%
[18]
  Ki: 21.6 µM
Rattus norvegicus [1]
  ED50: 7 µmol/kg
[19]
  inhibition: 15%
Rattus norvegicus [20]
  inhibition (INH): 4%
[21]
  IC50: > 580 µM
Rattus norvegicus [22]
  Activity: 54%
Homo sapiens
  Ratio Ki(app): 0.8
[23]
  Ki: 5.71 µM
D(2) dopamine receptor [24]
  Ki: 0.371 µM
Rattus norvegicus [25]
  inhibition (INH): 42%
D(3) dopamine receptor
  Ki: 2.52 µM
[26]
  IC50: > 580 µM
[27]
  Ki: 3.51 µM
[28]
  inhibition: 17%
[29]
  Ki: 17.2 µM
Rattus norvegicus [30]
  Activity: 334%
D(2) dopamine receptor [31]
  Ki: 0.456 µM
